What was measured:
[1] = system: binding site 2 of the sodium channel; assay: BTX binding, sodium channel; settings: 10 μM, percentage inhibition, [3H]-batrachotoxin A20 α-benzoate 10 nM, rat cerebral cortex synaptosomes
Method: Binding Investigations in the Sodium Channel
Binding Site 2 (BTX Binding)
The binding site 2 of the sodium channel is the so-called batrachotoxin (BTX) binding site. [^3H]-batrachlotoxin A20 α-benzoate (10 nM in the assay) was used as ligand. These ion channel particles (synaptosomes) were concentrated from rat cerebral cortex according to the procedure of Gray and Whittaker (E. G. Gray and V. P. Whittaker (1962) J. Anat. 76, 79-88). The radioactivity that is measured in the presence of veratridine (0.3 mM in the assay) is defined as non-specific binding. The material was incubated at 37° C. for 120 minutes. The assay conditions are carried out according to the protocol published by Pauwels, Leysen and Laduron (P. J. Pauwels, J. E. Leysen and P. M. Laduron (1986) Eur. J. Pharmacol. 124, 291-298).
(N=3, i.e. mean values±SEM from 3 independent series of experiments that were carried out in the form of triple parallel experiments).
(§1) For this purpose IC50 values are obtained, which can be converted to inhibitor constants (Ki) according to the “Cheng-Prusoff equation” (Y. C. Clieng and W. H. Prusoff (1973) Biochem. Pharmacol. 22, 3099-3108). The IC50 values were obtained by means of the computer program “Figure P” (version 6.0, Biosoft, Cambridge, England). Km values were calculated according to Lineweaver and Burk (H. Lineweaver and D. Burk (1934) J. Am. Chem. Soc. 56, 658-666). The “Ligand” computer program (version 4, Biosoft, England) was used to obtain Ken values.

[2] = system: benzothiazepine binding site of the L-type calcium channel; assay: Diltiazem binding, L calcium channel; set-up: species or system rat; settings: 10 μM, percentage inhibition, [3H]-cis-(+)-diltiazem 5 nM, rat cerebral cortex membranes
Method: Binding Investigations in the L Calcium Channel
Benzothiazepine Binding Site (Diltiazem Binding)
The biological membrane material was isolated from the rat cerebral cortex. [^3H]-cis-(+)-diltiazem (5 nM in the assay) was used as ligand. The material was incubated for 20 minutes at 25° C. The radioactivity that is measured in the presence of (±)-diltiazem (10^−6 M in the assay) is defined as non-specific binding. After completion of incubation the non-bound fraction of the radioactive ligand is separated by means of a filtration process using Whatman Glasfiber GF/B membranes. The membranes are washed and the radioactivity is then measured using a β-counter. The method is based on the details published by Schoemaker and Langer (H. Schoemaker and S. Z. Langer (1985) Eur. J. Pharmacol. 111, 273-277).
as §1

[3] = molecular target: T1, NA transporter (Rattus norvegicus, UniProt Q63380); assay: synaptosomal noradrenaline uptake inhibition (NA uptake inhibition); assay type: biochemical; settings: for NA Uptake Inhibition at 1 μM: 1 μM in the assay, synaptosomes from rat hypothalamus; for inhibition at 1 µM: read-out: NA Uptake Inhibition at 1 μM, 1 μM in the assay, synaptosomes from rat hypothalamus
T1 construct: synaptosomes are isolated fresh from rat brains; from tissue; host or cells: rat hypothalamus synaptosomes (P2 fraction)
Method: In order to carry out these in vitro studies, synaptosomes are isolated fresh from rat brains. In each case a so-called “P2” fraction is used, which is prepared according to the protocol of Gray and Whittaker (E. G. Gray and V. P. Whittaker (1962) J. Anat. 76, 79-88).
(in each case N=4, i.e. mean values±SEM from 4 independent series of experiments that were carried out in the form of triple parallel experiments).
as §1

[4] = system: phenylquinone-induced writhing reaction; assay: phenylquinone-induced writhing test in mice; assay type: in vivo; settings: male NMRI mice, phenylquinone i.p. 10 minutes later; for inhibition in vivo at 10 mg/kg: Mus musculus, iv, 10 min, 10 mg/kg intravenously
Method: Analgesic Effect in the Writhing Test in Mice
The analgesic effect was investigated in the phenylquinone-induced writhing test in mice (as modified by I. C. Hendershot and J. Forsaith (1959) J. Pharmacol. Exp. Ther. 125, 237-240). Male NMRI mice weighing 25 to 30 g were used for the test. Groups of 10 animals each received by intraperitoineal application, for each substance dose, 0.3 ml/mouse of a 0.02% aqueous solution of phenylquinone (phenylbenzoquinone, Sigma Company, Deisenhofen; solution prepared with addition of 5% of ethanol and kept in a water bath at 45° C.) 10 minutes after intravenous administration of the test substances. The animals were placed individually in observation cages. The number of pain-induced stretching movements (so-called writhing reactions=straightening of the body together with stretching of the rear extremities) was measured by means of a push-button counter 5 to 20 minutes after administration of the phenylquinone. Animals that had received only physiological saline solution served as controls. All substances were tested in the standard dose of 10 mg/kg. The percentage inhibition (% inhibition) of the writhing reaction produced by a substance was calculated according to the following formula: [formula]

T1 sequence (Q63380 1-617): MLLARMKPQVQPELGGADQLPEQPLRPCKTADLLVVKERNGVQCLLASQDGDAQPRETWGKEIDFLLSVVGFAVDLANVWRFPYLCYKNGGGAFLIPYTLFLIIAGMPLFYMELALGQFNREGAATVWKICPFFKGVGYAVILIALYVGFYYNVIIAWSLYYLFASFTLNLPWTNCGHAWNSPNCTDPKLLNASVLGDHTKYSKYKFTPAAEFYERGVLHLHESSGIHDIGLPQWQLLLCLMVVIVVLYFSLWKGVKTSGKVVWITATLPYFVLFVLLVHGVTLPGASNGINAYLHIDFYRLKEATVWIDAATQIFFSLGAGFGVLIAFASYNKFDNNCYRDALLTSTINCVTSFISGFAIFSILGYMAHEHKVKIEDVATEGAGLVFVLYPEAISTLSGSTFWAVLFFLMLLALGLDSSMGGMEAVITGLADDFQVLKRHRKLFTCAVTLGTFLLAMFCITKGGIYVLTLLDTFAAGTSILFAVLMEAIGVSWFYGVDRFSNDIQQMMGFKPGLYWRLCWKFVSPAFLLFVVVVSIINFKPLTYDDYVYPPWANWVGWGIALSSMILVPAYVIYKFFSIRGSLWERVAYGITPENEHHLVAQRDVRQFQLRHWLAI

Compound	BTX Binding at 10 μM [1] [%]	Diltiazem Binding at 10 μM [2] [%]	NA Uptake Inhibition at 1 μM [3] [%]	% Inhibition of the writhing reaction at 10 mg/kg intravenously [4] [%]	inhibition at 1 µM [3] [%]	inhibition in vivo at 10 mg/kg [4] [%]
CCC(O)(Cc1ccc(C(C)(C)C)cc1)C(C)C(c1ccccc1)N(C)C.Cl (stereo not drawn) [Example 80]	100	100	18	61		
CN(C)C(c1ccccc1)(c1cccc(Oc2ccccc2)c1)C1CCCCC1(O)Cc1ccccc1.Cl (stereo not drawn) [Example 34, 1-benzyl-2-[dimethylaminophenyl-(3-phenoxyphenyl)methyl]cyclohexanol, hydrochloride]	100	100			96	99
CN(C)C(c1ccccc1)C1CCCCC1(O)Cc1c(F)cccc1Cl.Cl (stereo not drawn) [Example 56, 1-(2-chloro-6-fluorobenzyl)-2-(dimethylaminophenylmethyl)cyclohexanol, hydrochloride]	99	88			92	94
CN(C)C(c1ccccc1Cl)C1CCCCC1(O)CCc1ccc(F)cc1.Cl (stereo not drawn) [Example 69, 2-[(2-chlorophenyl)dimethylaminomethyl]-1-[2-(4-fluorophenyl)ethyl]cyclohexanol, hydrochloride]	96	93			76	45
CN(C)C(c1ccccc1)C1CCCCC1(O)Cc1cc(F)ccc1F.Cl (stereo not drawn) [Example 54, 1-(2,5-difluorobenzyl)-2-(dimethylaminophenylmethyl)cyclohexanol, hydrochloride]	98	76			96	98
CN(C)C(c1ccc(F)cc1)C1CCCCC1(O)Cc1ccccc1.Cl (stereo not drawn) [Example 41, 1-benzyl-2-[dimethylamino-(4-fluorophenyl)methyl]cyclohexanol, hydrochloride]	94	87			100	88
Cc1ccccc1C(C1CCCCC1(O)Cc1ccccc1)N(C)C.Cl (stereo not drawn) [Example 67, 1-benzyl-2-(dimethylamino-o-tolylmethyl)cyclohexanol, hydrochloride]	97	98			83	84
CN(C)C(c1ccccc1)C1CCCCC1(O)Cc1ccc(F)cc1Cl.Cl (stereo not drawn) [Example 27, 1-(2-chloro-4-fluorobenzyl)-2-(dimethylaminophenylmethyl)cyclohexanol, hydrochloride]	97	96			89	82
CN(C)C(c1c(F)c(F)c(F)c(F)c1F)C1CCCCC1(O)Cc1ccccc1.Cl (stereo not drawn) [Example 77, 1-benzyl-2-(dimethylaminopentafluorophenylmethyl)cyclohexanol, hydrochloride]	56	27			27	54
CCC(O)(CCc1ccccc1)C(C)C(c1ccccc1)N(C)C.Cl (stereo not drawn) [Example 59, 1-dimethylamino-3-ethyl-2-methyl-1,5-diphenylpentan-3-ol, hydrochloride]	86	64			26	59
CN(C)C(c1cccs1)C1CCCCC1(O)Cc1cccc(C(F)(F)F)c1.Cl (stereo not drawn) [Example 70, 2-[dimethylaminothiophen-2-ylmethyl]-1-(3-trifluoromethylbenzyl)cyclohexanol, hydrochloride]	93	91	74	98		
CN(C)C(c1ccccc1)C1CCCCC1(O)c1ccc(Br)cc1.Cl (stereo not drawn) [Example 73]	93	89	61	75		
CN(C)C(c1ccccc1)C1CCCCC1(O)c1ccc(O)cc1.Cl (stereo not drawn) [Example 20, 4-[2-(dimethylaminophenylmethyl)-1-hydroxycyclohexyl]phenol, hydrochloride]	68	69			68	96
CN(C)C(c1ccccc1)C1CCCCC1(O)Cc1ccc(F)c(F)c1.Cl (stereo not drawn) [Example 55, 1-(3,4-difluorobenzyl)-2-(dimethylaminophenylmethyl)cyclohexanol, hydrochloride]	94	76			38	92
CN(C)C(c1ccccc1)C1CCCCC1(O)Cc1ccc(Cl)cc1Cl.Cl (stereo not drawn) [Example 33, 1-(2,4-dichlorobenzyl)-2-(dimethylaminophenylmethyl)cyclohexanol, hydrochloride]	98	86			83	84
CN(C)C(c1cccc(Cl)c1)C1CCCCC1(O)Cc1ccc(C(C)(C)C)cc1.Cl (stereo not drawn) [Example 51, 1-(4-tert.-butylbenzyl)-2-[(3-chlorophenyl)dimethylaminomethyl]cyclohexanol, hydrochloride]	99	77			10	99
CN(C)C(c1cccc(Cl)c1)C1CCCCC1(O)c1ccccc1.Cl (stereo not drawn) [Example 42]	89	50	82	76		
CN(C)C(c1ccc(Cl)c(Cl)c1)C1CCCCC1(O)Cc1ccccc1.Cl (stereo not drawn) [Example 39, 1-benzyl-2-[(3,4-dichlorophenyl)dimethylaminomethyl]cyclohexanol, hydrochloride]	97	76			61	94
COc1cccc(CC2(O)CCCCC2C(c2cccc(OC)c2)N(C)C)c1.Cl (stereo not drawn) [Example 37, 2-(dimethylamino-(3-methoxyphenyl)methyl]-1-(3-methoxybenzyl)cyclohexanol, hydrochloride]	90	94			100	93
COc1ccc(OC)c(C2(O)CCCCC2C(c2ccccc2)N(C)C)c1.Cl (stereo not drawn) [Example 26, 1-(2,5-dimethoxyphenyl)-2-(dimethylaminophenylmethyl)cyclohexanol, hydrochloride]	85	87			5	94
CN(C)C(c1ccc2ccccc2c1)C1CCCCC1(O)Cc1ccccc1.Cl (stereo not drawn) [Example 76, 1-benzyl-2-(dimethylaminonaphthalene-2-ylmethyl)cyclohexanol, hydrochloride]	90	73			80	60
